Test results reported in BindingDB's records for patent US20250304563 (Orum Therapeutics, 2025).

Target: T1, Isoform Truncated 1 of E3 ubiquitin-protein ligase CBL-B [36-427] (Homo sapiens, UniProt Q13191)
T1 construct: 36-427
Experiment: Binding Affinity of Example 1 Compounds to Cbl-b Protein
Experimental: Compounds were assessed for binding activity to Cbl-b by their ability to compete with and displace a probe comprised of BODIPY-FL fluorophore conjugated to a Cbl-b inhibitor (see Example 54 in WO2020264398). In the assay, a 36-427 aa truncated form of Cbl-b with an N-terminus Avi-tag was incubated 20 mM HEPES pH 7.5, 150 mM NaCl, 0.01% Triton X-100, 0.1% BSA, 0.5 mM TCEP buffer with streptavidin-terbium (Cisbio). After one hour of incubation at room temperature, 1 uM each of fluorescent probe and compound were combined with the reaction mixture. Compounds with Cbl-b binding activity competitively displace the fluorophore tagged inhibitor thereby disrupting the FRET signal from the terbium-BODIPY-FL complex. The reaction mixtures were incubated for one additional hour at room temperature to allow for competition between inhibitor and candidate compounds to occur. The time resolved FRET (TR-FRET) signal was then read at 520/620 […] ([…]) using a Spectramax M5e plate reader (Molecular Devices) to measure probe displacement. Compounds with Cbl-b binding activity had decreased FRET signal owing to disruption of the terbium-BODIPY-FL FRET complex. Standard methods in PRISM were used to calculate the compound IC50 values from the experimental data.

IC50: in the range around 12.5 nM
SMILES: CCSc1cc(C2(Cc3nncn3C)COC2)cc(N2CC3C(C(N)=O)=CC(CN4CCC[C@H](C)C4)=CC3C2=O)n1 (stereo partly specified) [US20250304563, Compound 145]
